Holding throughout (assay type): functional, cell-based
In one test the test system is HL-60. In words: Antiproliferative activity against human HL60 cells after 48 hrs by MTT assay. The note with it: HL-60, 48 h. For orientation: Formazan colour is commonly taken as a measure of viable cells.
A further test deals with PC-3. The test can be described thus: Antiproliferative activity against human PC3 cells after 48 hrs by MTT assay. The note with it: PC-3, 48 h.
The next test relates to HepG2. In words: Antiproliferative activity against human HepG2 cells after 48 hrs by MTT assay. The settings on record: HepG2, 48 h.
For another test, the system named is U-937. The test can be described thus: Antiproliferative activity against human U937 cells after 48 hrs by MTT assay. The note with it: U-937, 48 h.
A further test deals with HT-29. The test can be described thus: Antiproliferative activity against human HT-29 cells after 48 hrs by MTT assay. The settings on record: HT-29, 48 h.
The subject of the next test is A549. In words: Antiproliferative activity against human A549 cells after 48 hrs by MTT assay. The settings on record: A549, 48 h.

Molecules are shown by their SMILES.

On to `CC(=O)c1ccc(-n2cc(CNC(=O)[C@]34CCC(C)(C)C[C@H]3C3=CC[C@@H]5[C@@]6(C)CC[C@H](O[C@@H]7OC[C@H](O[C@@H]8O[C@H](CO)[C@@H](O)[C@H](O)[C@H]8O)[C@H](O)[C@H]7O[C@@H]7O[C@@H](C)[C@H](O)[C@@H](O)[C@H]7O)C(C)(C)[C@@H]6CC[C@@]5(C)[C@]3(C)CC4)nn2)cc1`, for which the IC50 (usually the concentration that inhibits the measured activity by half) in the test with HL-60 turned out to be 4.66 µM; with PC-3, 46.9 µM; with HepG2, 33 µM; in the test on U-937, 0.78 µM; in the test on HT-29, 6.42 µM; in the test on A549 it was 0.28 µM.
In the case of `C[C@@H]1O[C@@H](O[C@H]2[C@H](O[C@H]3CC[C@]4(C)[C@H]5CC=C6[C@@H]7CC(C)(C)CC[C@]7(C(=O)NCc7cn(-c8ccc(F)cc8)nn7)CC[C@@]6(C)[C@]5(C)CC[C@H]4C3(C)C)OC[C@H](O[C@@H]3O[C@H](CO)[C@@H](O)[C@H](O)[C@H]3O)[C@@H]2O)[C@H](O)[C@H](O)[C@H]1O`, the IC50 is 1.8 µM in the test on HL-60; 5.78 µM in the test with PC-3; 3.18 µM in the test with HepG2; 0.48 µM with U-937; 2.32 µM in the test with HT-29; 1.02 µM in the test on A549.
As for `Cc1cccc(-n2cc(CNC(=O)[C@]34CCC(C)(C)C[C@H]3C3=CC[C@@H]5[C@@]6(C)CC[C@H](O[C@@H]7OC[C@H](O[C@@H]8O[C@H](CO)[C@@H](O)[C@H](O)[C@H]8O)[C@H](O)[C@H]7O[C@@H]7O[C@@H](C)[C@H](O)[C@@H](O)[C@H]7O)C(C)(C)[C@@H]6CC[C@@]5(C)[C@]3(C)CC4)nn2)c1`, the IC50 with HL-60 was determined as 4.64 µM; in the test with PC-3 it was 3.93 µM; with HepG2 it was 3.49 µM; in the test with U-937, 3.93 µM; with HT-29, 4.33 µM; in the test on A549 it was 0.18 µM.
In the case of `Cc1cccc(C)c1-n1cc(CNC(=O)[C@]23CCC(C)(C)C[C@H]2C2=CC[C@@H]4[C@@]5(C)CC[C@H](O[C@@H]6OC[C@H](O[C@@H]7O[C@H](CO)[C@@H](O)[C@H](O)[C@H]7O)[C@H](O)[C@H]6O[C@@H]6O[C@@H](C)[C@H](O)[C@@H](O)[C@H]6O)C(C)(C)[C@@H]5CC[C@@]4(C)[C@]2(C)CC3)nn1`, the 50% inhibitory concentration (IC50) in the test on HL-60 came to 4.47 µM; in the test with PC-3, 8.96 µM; in the test with HepG2, 3.31 µM; in the test with U-937 it was 8.48 µM; with HT-29, 7.66 µM; in the test on A549, 6.08 µM.
Take `C[C@@H]1O[C@@H](O[C@H]2[C@H](O[C@H]3CC[C@]4(C)[C@H]5CC=C6[C@@H]7CC(C)(C)CC[C@]7(C(=O)NCc7cn(-c8cccnc8)nn7)CC[C@@]6(C)[C@]5(C)CC[C@H]4C3(C)C)OC[C@H](O[C@@H]3O[C@H](CO)[C@@H](O)[C@H](O)[C@H]3O)[C@@H]2O)[C@H](O)[C@H](O)[C@H]1O`: the IC50 is 9.94 µM in the test on HL-60; 41.1 µM in the test on PC-3; 20.1 µM in the test with HepG2; 9.03 µM in the test with U-937; 37.8 µM in the test on HT-29; 47.2 µM with A549.
On to `COc1ccccc1-n1cc(CNC(=O)[C@]23CCC(C)(C)C[C@H]2C2=CC[C@@H]4[C@@]5(C)CC[C@H](O[C@@H]6OC[C@H](O[C@@H]7O[C@H](CO)[C@@H](O)[C@H](O)[C@H]7O)[C@H](O)[C@H]6O[C@@H]6O[C@@H](C)[C@H](O)[C@@H](O)[C@H]6O)C(C)(C)[C@@H]5CC[C@@]4(C)[C@]2(C)CC3)nn1`, for which the 50% inhibitory concentration (IC50) was 12.2 µM with HL-60; 38 µM with PC-3; 17.7 µM in the test with HepG2; 7.73 µM with U-937; 44.4 µM in the test on HT-29; 6.99 µM in the test with A549.
Take `C[C@@H]1O[C@@H](O[C@H]2[C@H](O[C@H]3CC[C@]4(C)[C@H]5CC=C6[C@@H]7CC(C)(C)CC[C@]7(C(=O)NCc7cn(-c8ccccc8)nn7)CC[C@@]6(C)[C@]5(C)CC[C@H]4C3(C)C)OC[C@H](O[C@@H]3O[C@H](CO)[C@@H](O)[C@H](O)[C@H]3O)[C@@H]2O)[C@H](O)[C@H](O)[C@H]1O`: the concentration for half-maximal inhibition (IC50) was 18.5 µM in the test with HL-60; 45 µM in the test on PC-3; 25.8 µM with HepG2; 8.79 µM in the test with U-937; 9.3 µM with HT-29; 3.74 µM in the test with A549.
Take `C[C@@H]1O[C@@H](O[C@H]2[C@H](O[C@H]3CC[C@]4(C)[C@H]5CC=C6[C@@H]7CC(C)(C)CC[C@]7(C(=O)O)CC[C@@]6(C)[C@]5(C)CC[C@H]4C3(C)C)OC[C@H](O[C@@H]3O[C@H](CO)[C@@H](O)[C@H](O)[C@H]3O)[C@@H]2O)[C@H](O)[C@H](O)[C@H]1O` [HEDERACOLCHISIDE A1]: the 50% inhibitory concentration (IC50) in the test with HL-60 came out at 3.13 µM; with PC-3, 0.85 µM; in the test with HepG2, 4.21 µM; in the test with U-937 it was 2.37 µM; in the test on HT-29 it was 4.77 µM; with A549 it was 5.41 µM.
Turning to `C[C@@H]1O[C@@H](O[C@H]2[C@H](O[C@H]3CC[C@]4(C)[C@H]5CC=C6[C@@H]7CC(C)(C)CC[C@]7(C(=O)NCc7cn(-c8ccccc8F)nn7)CC[C@@]6(C)[C@]5(C)CC[C@H]4C3(C)C)OC[C@H](O[C@@H]3O[C@H](CO)[C@@H](O)[C@H](O)[C@H]3O)[C@@H]2O)[C@H](O)[C@H](O)[C@H]1O`, the IC50 in the test on HL-60 was found to be 5.45 µM; in the test with PC-3, 39.3 µM; in the test with HepG2, 5.39 µM; in the test with U-937 it was 4.51 µM; with HT-29, 30.9 µM; in the test on A549, 7.09 µM.
Regarding `COc1cccc(-n2cc(CNC(=O)[C@]34CCC(C)(C)C[C@H]3C3=CC[C@@H]5[C@@]6(C)CC[C@H](O[C@@H]7OC[C@H](O[C@@H]8O[C@H](CO)[C@@H](O)[C@H](O)[C@H]8O)[C@H](O)[C@H]7O[C@@H]7O[C@@H](C)[C@H](O)[C@@H](O)[C@H]7O)C(C)(C)[C@@H]6CC[C@@]5(C)[C@]3(C)CC4)nn2)c1`, the IC50 with HL-60 came out at 5.66 µM; in the test with PC-3, 0.23 µM; with HepG2, 1.66 µM; in the test on U-937, 5.9 µM; in the test on HT-29, 3.48 µM; with A549, 2.45 µM.
Consider `O=c1[nH]cc(F)c(=O)[nH]1` [FLUOROURACIL], for which the IC50 in the test on HL-60 was 54.5 µM; with PC-3, 8.45 µM; in the test on HepG2, 59.1 µM; in the test with U-937, 56.3 µM; with HT-29 it was 22.2 µM; in the test on A549 it was 69.1 µM.
In the case of `CC(=O)c1ccccc1-n1cc(CNC(=O)[C@]23CCC(C)(C)C[C@H]2C2=CC[C@@H]4[C@@]5(C)CC[C@H](O[C@@H]6OC[C@H](O[C@@H]7O[C@H](CO)[C@@H](O)[C@H](O)[C@H]7O)[C@H](O)[C@H]6O[C@@H]6O[C@@H](C)[C@H](O)[C@@H](O)[C@H]6O)C(C)(C)[C@@H]5CC[C@@]4(C)[C@]2(C)CC3)nn1`, the IC50 is 14.3 µM in the test on HL-60; 49.6 µM in the test on PC-3; 12.4 µM in the test with HepG2; 11.3 µM in the test with U-937; 35.6 µM with HT-29; 10.5 µM in the test on A549.

The values are drawn from ChEMBL document CHEMBL4229426, “Synthesis, antitumor activity evaluation and mechanistic study of novel hederacolchiside A1 derivatives bearing an aryl triazole moiety” (Bioorg Med Chem, 2018).
